{"source": "paper PMC8869720", "about": "“A Sensitive Monoclonal-Antibody-Based ELISA for Forchlorfenuron Residue Analysis in Food Samples” (Biosensors, 2022)", "key": {"anti-CPPU mAb": {"system": "anti-CPPU mAb", "assay": "optimized indirect competitive ELISA (icELISA) with anti-CPPU monoclonal antibody", "format": "binding, mouse", "settings": "for Cross-Reactivity: CR (%) = IC50 CPPU/IC50 structural analogue × 100", "protocol": "(§1) The icELISA protocol was performed as described previously. Briefly, 100 µL/well of coating antigen (1 µg/mL in CBS) was added to 96-well microtiter plates and stored at 37 °C overnight. The plate was rinsed twice with washing buffer and blocked by PBST containing 5% skimmed milk powder (120 µL/well) for 3 h at 37 °C. Then, the plate was rinsed twice and dried at 37 °C for 60 min. CPPU standard in PBS (50 µL) and the antibodies diluted in PBS (50 µL) were added and incubated at 37 °C for 40 min. After rinsing five times, the goat anti-mouse IgG-HRP was added (100 µL/well), followed by incubation for 30 min at 37 °C. After rinsing five times, the TMB solution (100 µL/well) was added and incubated for another 10 min at 37 °C. Stopping reagent (50 µL/well) was injected into each well to stop the chromogenic reaction, and the absorbance at 450 nm was measured using a microplate reader.\nMany reports have shown that the immunoassay is an equilibrium binding reaction, and the experimental parameters used can affect the performance of the ELISA [28, 31, 32, 33]. In order to improve sensitivity of the established icELISA, the assay was optimized on concentrations of coating antigen and antibody, working buffer, and IgG-HRP dilution multiple. A standard curve for CPPU was obtained under optimal conditions by four-parameter sigmoidal fitting with Origin 9.0 software (OriginLab Corporation, Northampton, MA, USA). The IC10, IC20, IC50, and IC80 values correspond to the CPPU concentration levels that inhibit 10%, 20%, 50%, and 80% of the binding between mAb and the coating antigen, respectively. The IC10 value represents the LOD of the assay. The concentration levels from IC20 to IC80 are the linear range of the assay.\nTo evaluate the specificity of the mAb against CPPU, CR values with six structural analogs were chosen for evaluation. The CR values were calculated using Equation (1):CR (%) = IC50 CPPU/IC50 structural analogue × 100(1)"}, "[1]": {"system": "monoclonal antibody (mAb)", "parameters": "method as in doi:10.14088/j.cnki.issn0439-8114.2016.21.037", "settings": "immunogen CPPU-H1-BSA, coating antigen CPPU-H2-OVA; cited from earlier work"}, "[2]": {"system": "rabbit polyclonal antibody", "parameters": "method as in earlier work", "settings": "rabbit polyclonal antibody icELISA; cited from earlier work"}, "[3]": {"system": "mice antisera against CPPU", "assay": "icELISA characterization of mice antisera: inhibition by CPPU", "format": "binding, mouse", "settings": "1 μg/mL of competitor", "protocol": "At the first immunization, each eight-week-old Balb/c female mouse was injected subcutaneously with 200 µL of an emulsion containing an equal volume of immunogen (1.0 mg/mL) and Freund’s complete adjuvant. In the subsequent booster immunizations, Freund’s incomplete adjuvant was substituted for Freund’s complete adjuvant and was injected at two-week intervals. After the third booster injection, the antisera were collected 7 days after each injection and checked by icELISA.\nas §1"}, "antisera to CPPU": {"system": "antisera to CPPU", "parameters": "method as in PMID 18989973, PMID 20681638, PMID 22526663", "settings": "high-affinity antisera, Abad-Fuentes group; cited from earlier work"}, "monoclonal antibody": {"system": "monoclonal antibody", "parameters": "method as in PMID 22526663", "settings": "previous mAb-based ELISA for CPPU; cited from earlier work"}, "[4]": {"settings": "optimum conditions: coating antigen 250 ng/mL, antibody 1:8000 dilution, PBS, IgG-HRP 1:5000"}}, "note": "pIC50: −log10 of the molar value. Read-outs that look alike come from different tables or passages of the source.", "data": [{"smiles": "O=C(O)c1nc(Cl)ccc1Cl", "note": "[3,6-Dichloropicolinic]", "values": [{"measurement": "Cross-Reactivity", "setting": "anti-CPPU mAb", "value": 0.63, "unit": "%"}, {"measurement": "IC50", "setting": "anti-CPPU mAb; [4]", "value": 166.20, "unit": "ng/mL"}]}, {"smiles": "O=C(Nc1ccccc1)Nc1ccnc(Cl)c1", "note": "[CPPU, Forchlorfenuron]", "values": [{"measurement": "Cross-Reactivity", "setting": "anti-CPPU mAb", "value": 100, "unit": "%"}, {"measurement": "IC50", "setting": "anti-CPPU mAb; IC50 1.04 ng/mL given in nM, read-out: IC50", "value": 4.2, "unit": "nM"}, {"measurement": "IC50", "setting": "anti-CPPU mAb; [4]", "value": 1.04, "unit": "ng/mL"}, {"measurement": "limit of detection (LOD, IC10)", "setting": "anti-CPPU mAb; optimum conditions, IC10 value represents the LOD", "value": 0.16, "unit": "ng/mL"}, {"measurement": "IC50", "setting": "[1]", "value": 3.89, "unit": "ng/mL"}, {"measurement": "IC50", "setting": "[2]", "value": 48, "unit": "ng/mL"}, {"measurement": "LOD", "setting": "[2]", "value": 1, "unit": "ng/mL"}, {"measurement": "Inhibition of CPPU", "setting": "[3]; immunogen CPPU-COOH-BSA, coating antigen CPPU-COOH-OVA", "value": 58.4, "unit": "%"}, {"measurement": "Inhibition of CPPU", "setting": "[3]; immunogen CPPU-COOH-KLH, coating antigen CPPU-COOH-BSA", "value": 55.6, "unit": "%"}, {"measurement": "Inhibition of CPPU", "setting": "[3]; immunogen CPPU-COOH-KLH, coating antigen CPPU-COOH-OVA", "value": 55.9, "unit": "%"}, {"measurement": "Inhibition of CPPU", "setting": "[3]; immunogen CPPU-COOH-THY, coating antigen CPPU-COOH-BSA", "value": 83.3, "unit": "%"}, {"measurement": "Inhibition of CPPU", "setting": "[3]; immunogen CPPU-COOH-THY, coating antigen CPPU-COOH-OVA", "value": 82.9, "unit": "%"}, {"measurement": "pIC50", "setting": "antisera to CPPU", "value": "> 9.00"}]}, {"smiles": "Cc1ccc(NC(=O)N(C)C)cc1Cl", "note": "[Chlortoluron]", "values": [{"measurement": "Cross-Reactivity", "setting": "anti-CPPU mAb", "value": 1.62, "unit": "%"}, {"measurement": "IC50", "setting": "anti-CPPU mAb; [4]", "value": 64.34, "unit": "ng/mL"}]}, {"smiles": "CN(C)C(=O)Nc1ccc(Cl)c(Cl)c1", "note": "[Diuron]", "values": [{"measurement": "Cross-Reactivity", "setting": "anti-CPPU mAb", "value": 0.13, "unit": "%"}, {"measurement": "IC50", "setting": "anti-CPPU mAb; [4]", "value": 823.79, "unit": "ng/mL"}]}, {"smiles": "CON(C)C(=O)Nc1ccc(Cl)c(Cl)c1", "note": "[Linuron]", "values": [{"measurement": "Cross-Reactivity", "setting": "anti-CPPU mAb", "value": 0.46, "unit": "%"}, {"measurement": "IC50", "setting": "anti-CPPU mAb; [4]", "value": 226.43, "unit": "ng/mL"}]}, {"smiles": "Nc1c(Cl)c(Cl)nc(C(=O)O)c1Cl", "note": "[Picloram]", "values": [{"measurement": "Cross-Reactivity", "setting": "anti-CPPU mAb", "value": 0.23, "unit": "%"}, {"measurement": "IC50", "setting": "anti-CPPU mAb; [4]", "value": 450.72, "unit": "ng/mL"}]}, {"smiles": "O=C(Nc1ccccc1)Nc1cnns1", "note": "[Thidiazuron (TDZ), Thidiazuron]", "values": [{"measurement": "Cross-Reactivity", "setting": "anti-CPPU mAb", "value": 5.36, "unit": "%"}, {"measurement": "Cross-Reactivity", "setting": "anti-CPPU mAb; listed as TDZ", "value": "less than 6%"}, {"measurement": "IC50", "setting": "anti-CPPU mAb; [4]", "value": 19.42, "unit": "ng/mL"}, {"measurement": "cross-reactivity (CR)", "setting": "monoclonal antibody", "value": 71, "unit": "%"}]}]}
